Measurements from patent publication US7632811B2, “Analogs of parathyroid hormone” (Societe de Conseils de Recherches et D'Applications …, priority 1995, dated 2009).
Like-named read-outs stand apart in the source and are kept apart here. Non-standard residues stand in square brackets, D forms with d. Residues, ends and D or L forms follow the SMILES beside them. Cha = N[C@@H](CC1CCCCC1)C(=O)O; Ac6c = NC1(C(=O)O)CCCCC1; Nle = CCCC[C@H](N)C(=O)O; Aib = CC(C)(N)C(=O)O

Biological target: T1, PTH receptor present on SaOS-2 (human osteosarcoma cells) (Homo sapiens, UniProt Q03431)
T1 construct: host or cells: SaOS-2 human osteosarcoma cells (intact, confluent monolayers)
T1 sequence (Q03431 27-593): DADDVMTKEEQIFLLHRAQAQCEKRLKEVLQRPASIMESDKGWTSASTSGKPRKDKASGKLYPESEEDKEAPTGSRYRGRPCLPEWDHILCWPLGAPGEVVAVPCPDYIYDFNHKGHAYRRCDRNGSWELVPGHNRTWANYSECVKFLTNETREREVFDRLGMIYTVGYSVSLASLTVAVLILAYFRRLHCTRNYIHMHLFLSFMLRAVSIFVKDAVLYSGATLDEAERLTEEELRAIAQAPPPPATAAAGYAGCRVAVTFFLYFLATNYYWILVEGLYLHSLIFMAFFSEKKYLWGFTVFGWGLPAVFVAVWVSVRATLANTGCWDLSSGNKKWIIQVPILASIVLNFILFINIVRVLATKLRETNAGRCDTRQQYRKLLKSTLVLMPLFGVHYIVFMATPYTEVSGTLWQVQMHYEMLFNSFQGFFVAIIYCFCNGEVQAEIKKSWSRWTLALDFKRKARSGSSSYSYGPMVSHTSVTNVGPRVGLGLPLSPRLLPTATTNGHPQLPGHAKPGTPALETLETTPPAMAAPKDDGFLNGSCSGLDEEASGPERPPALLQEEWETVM
Experiment: Binding to PTH receptor on SaOS-2 cells (competition with mono-125I-[Nle8,18,Tyr34(3-125I)]bPTH(1-34)NH2)
Settings: 2 hrs at room temperature, read-out: Kd (half maximal inhibition of binding of mono-125I-[Nle8,18, Tyr34(3-125I)]bPTH(1-34)NH2)
Outline: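 Confluent SaOS-2 cells in 5% FBS RPMI were incubated 2 h at room temperature with 10×10^4 cpm mono-125I-[Nle8,18,Tyr34(3-125I)]bPTH(1-34)NH2 plus competing peptide at 10^−11 to 10^−4 M. After washing, cell-bound radioactivity was counted; Kd taken as half-maximal inhibition of tracer binding.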

Structure (SMILES): CC[C@H](C)[C@H](NC(=O)[C@H](CO)NC(=O)[C@H](CCCCN)NC(=O)CNC(=O)[C@H](CCCCN)NC(=O)[C@H](CC(=O)O)NC(=O)[C@H](Cc1c[nH]cn1)NC(=O)[C@H](CC(C)C)NC(=O)[C@H](CC(C)C)NC(=O)[C@H](CCC(N)=O)NC(=O)[C@H](Cc1c[nH]cn1)NC(=O)[C@H](CCC(=O)O)NC(=O)[C@H](CO)NC(=O)[C@@H](NC(=O)[C@H](C)N)C(C)C)C(=O)N[C@@H](CCC(N)=O)C(=O)N[C@@H](CC(=O)O)C(=O)N[C@@H](CC(C)C)C(=O)N[C@@H](CCCNC(=N)N)C(=O)N[C@@H](CCCNC(=N)N)C(=O)N[C@@H](CCCNC(=N)N)C(=O)N[C@@H](CCC(=O)O)C(=O)N[C@@H](CC(C)C)C(=O)N[C@@H](CC(C)C)C(=O)N[C@@H](CCC(=O)O)C(=O)N[C@@H](CCCCN)C(=O)NC1(C(=O)N[C@@H](CC(C)C)C(=O)NC(C)(C)C(=O)N[C@@H](CCCCN)C(=O)N[C@@H](CC(C)C)C(=O)N[C@@H](Cc2c[nH]cn2)C(=O)N[C@H](C(=O)N[C@@H](C)C(N)=O)[C@@H](C)O)CCCCC1 [[Glu^22,25, Leu^23,28,31, Lys^26,30, Ahc^27, Aib^29]hPTHrP(1-34)NH2] (H-AVSEHQLLHDKGKSIQDLRRRELLEK[Ac6c]L[Aib]KLHTA-NH2; N-terminus assumed)
- Kd (Table II): 230 nM

Structure (SMILES): CC[C@H](C)[C@H](NC(=O)[C@H](CCC(=O)O)NC(=O)[C@H](CO)NC(=O)[C@@H](NC(=O)[C@@H](N)CO)C(C)C)C(=O)N[C@@H](CCC(N)=O)C(=O)N[C@@H](CC1CCCCC1)C(=O)N[C@@H](CCSC)C(=O)N[C@@H](Cc1c[nH]cn1)C(=O)N[C@@H](CC(N)=O)C(=O)N[C@@H](CC1CCCCC1)C(=O)NCC(=O)N[C@@H](CCCCN)C(=O)N[C@@H](Cc1c[nH]cn1)C(=O)N[C@@H](CC(C)C)C(=O)NC(C)(C)C(=O)N[C@@H](CO)C(=O)N[C@@H](CCSC)C(=O)N[C@@H](CCC(=O)O)C(=O)N[C@@H](CCCNC(=N)N)C(=O)N[C@H](C(=O)N[C@@H](CCC(=O)O)C(=O)N[C@@H](Cc1c[nH]c2ccccc12)C(=O)N[C@@H](CC(C)C)C(=O)N[C@@H](CCCNC(=N)N)C(=O)N[C@@H](CCCCN)C(=O)N[C@@H](CCCCN)C(=O)N[C@@H](CC(C)C)C(=O)N[C@@H](CCC(N)=O)C(=O)N[C@@H](CC(=O)O)C(=O)N[C@H](C(=O)N[C@@H](Cc1c[nH]cn1)C(=O)N[C@@H](CC(N)=O)C(=O)N[C@@H](Cc1ccccc1)C(N)=O)C(C)C)C(C)C [[Cha^7,11, Aib^16]hPTH(1-34)NH2] (H-SVSEIQ[Cha]MHN[Cha]GKHL[Aib]SMERVEWLRKKLQDVHNF-NH2)
- Kd (Table I): 4 nM

Structure (SMILES): CC[C@H](C)[C@H](NC(=O)[C@H](CCC(=O)O)NC(=O)[C@H](CO)NC(=O)[C@@H](NC(=O)[C@@H](N)CO)C(C)C)C(=O)N[C@@H](CCC(N)=O)C(=O)N[C@@H](CC(C)C)C(=O)N[C@@H](CCSC)C(=O)N[C@@H](Cc1c[nH]cn1)C(=O)N[C@@H](CC(N)=O)C(=O)N[C@@H](CC(C)C)C(=O)NCC(=O)N[C@@H](CCCCN)C(=O)N[C@@H](Cc1c[nH]cn1)C(=O)N[C@@H](CC(C)C)C(=O)NC(C)(C)C(=O)N[C@@H](CO)C(=O)N[C@@H](CCSC)C(=O)NC(C)(C)C(=O)N[C@@H](CCCNC(=N)N)C(=O)N[C@H](C(=O)N[C@@H](CCC(=O)O)C(=O)N[C@@H](Cc1c[nH]c2ccccc12)C(=O)N[C@@H](CC(C)C)C(=O)N[C@@H](CCCNC(=N)N)C(=O)N[C@@H](CCCCN)C(=O)N[C@@H](CCCCN)C(=O)N[C@@H](CC(C)C)C(=O)N[C@@H](CCC(N)=O)C(=O)N[C@@H](CC(=O)O)C(=O)N[C@H](C(=O)N[C@@H](Cc1c[nH]cn1)C(=O)N[C@@H](CC(N)=O)C(=O)N[C@@H](Cc1ccccc1)C(N)=O)C(C)C)C(C)C [[Aib^16,19]hPTH(1-34)NH2] (H-SVSEIQLMHNLGKHL[Aib]SM[Aib]RVEWLRKKLQDVHNF-NH2)
- Kd (Table I): 4 nM

Structure (SMILES): CC[C@H](C)[C@H](NC(=O)[C@H](CCC(=O)O)NC(=O)[C@H](CO)NC(=O)[C@@H](NC(=O)[C@@H](N)CO)C(C)C)C(=O)N[C@@H](CCC(N)=O)C(=O)N[C@@H](CC(C)C)C(=O)N[C@@H](CCSC)C(=O)N[C@@H](Cc1c[nH]cn1)C(=O)N[C@@H](CC(N)=O)C(=O)N[C@@H](CC(C)C)C(=O)NCC(=O)N[C@@H](CCCCN)C(=O)N[C@@H](Cc1c[nH]cn1)C(=O)N[C@@H](CC(C)C)C(=O)NC(C)(C)C(=O)N[C@@H](CO)C(=O)N[C@@H](CCSC)C(=O)N[C@@H](CCC(=O)O)C(=O)N[C@@H](CCCNC(=N)N)C(=O)N[C@H](C(=O)N[C@@H](CCC(=O)O)C(=O)N[C@@H](Cc1c[nH]c2ccccc12)C(=O)N[C@@H](CC(C)C)C(=O)N[C@@H](CCCNC(=N)N)C(=O)N[C@@H](CCCCN)C(=O)N[C@@H](CCCCN)C(=O)N[C@@H](CC(C)C)C(=O)N[C@@H](CCC(N)=O)C(=O)N[C@@H](CC(=O)O)C(=O)N[C@H](C(=O)N[C@@H](Cc1c[nH]cn1)C(=O)N[C@@H](CC(N)=O)C(=O)N[C@@H](Cc1ccccc1)C(N)=O)C(C)C)C(C)C [[Aib^16]hPTH(1-34)NH2] (H-SVSEIQLMHNLGKHL[Aib]SMERVEWLRKKLQDVHNF-NH2)
- Kd (Table I): 4 nM

Structure (SMILES): CC[C@H](C)[C@H](NC(=O)[C@H](CCC(=O)O)NC(=O)[C@H](CO)NC(=O)[C@@H](NC(=O)[C@@H](N)CO)C(C)C)C(=O)N[C@@H](CCC(N)=O)C(=O)N[C@@H](CC(C)C)C(=O)N[C@@H](CCSC)C(=O)N[C@@H](Cc1c[nH]cn1)C(=O)N[C@@H](CC(N)=O)C(=O)N[C@@H](CC(C)C)C(=O)NCC(=O)N[C@@H](CCCCN)C(=O)N[C@@H](Cc1c[nH]cn1)C(=O)N[C@@H](CC(C)C)C(=O)N[C@@H](CC(N)=O)C(=O)N[C@@H](CO)C(=O)N[C@@H](CCSC)C(=O)N[C@@H](CCC(=O)O)C(=O)N[C@@H](CCCNC(=N)N)C(=O)N[C@H](C(=O)N[C@@H](CCC(=O)O)C(=O)N[C@@H](Cc1c[nH]c2ccccc12)C(=O)N[C@@H](CC(C)C)C(=O)N[C@@H](CCCNC(=N)N)C(=O)N[C@@H](CCCCN)C(=O)N[C@@H](CCCCN)C(=O)N[C@@H](CC1CCCCC1)C(=O)N[C@@H](CCC(N)=O)C(=O)N[C@@H](CC(=O)O)C(=O)N[C@H](C(=O)N[C@@H](Cc1c[nH]cn1)C(=O)N[C@@H](CC(N)=O)C(=O)N[C@@H](Cc1ccccc1)C(N)=O)C(C)C)C(C)C [[Cha^28]hPTH(1-34)NH2] (H-SVSEIQLMHNLGKHLNSMERVEWLRKK[Cha]QDVHNF-NH2)
- Kd (Table I): 50 nM

Structure (SMILES): CCCC[C@H](NC(=O)[C@H](CC1CCCCC1)NC(=O)[C@H](CCC(N)=O)NC(=O)[C@@H](NC(=O)[C@H](CCC(=O)O)NC(=O)[C@H](CO)NC(=O)[C@@H](NC(=O)[C@@H](N)CO)C(C)C)[C@@H](C)CC)C(=O)N[C@@H](Cc1c[nH]cn1)C(=O)N[C@@H](CC(N)=O)C(=O)N[C@@H](CC1CCCCC1)C(=O)NCC(=O)N[C@@H](CCCCN)C(=O)N[C@@H](Cc1c[nH]cn1)C(=O)N[C@@H](CC(C)C)C(=O)NC(C)(C)C(=O)N[C@@H](CO)C(=O)N[C@@H](CCCC)C(=O)NC(C)(C)C(=O)N[C@@H](CCCNC(=N)N)C(=O)N[C@H](C(=O)N[C@@H](CCC(=O)O)C(=O)N[C@@H](Cc1c[nH]c2ccccc12)C(=O)N[C@@H](CC(C)C)C(=O)N[C@@H](CCCNC(=N)N)C(=O)N[C@@H](CCCCN)C(=O)N[C@@H](CCCCN)C(=O)N[C@@H](CC(C)C)C(=O)N[C@@H](CCC(N)=O)C(=O)N[C@@H](CC(=O)O)C(=O)N[C@H](C(=O)N[C@@H](Cc1c[nH]cn1)C(=O)N[C@@H](CC(N)=O)C(=O)N[C@@H](Cc1ccc(O)cc1)C(N)=O)C(C)C)C(C)C [[Cha^7,11, Nle^8,18, Aib^16,19, Tyr^34]hPTH (1-34)NH2] (H-SVSEIQ[Cha][Nle]HN[Cha]GKHL[Aib]S[Nle][Aib]RVEWLRKKLQDVHNY-NH2)
- Kd (Table I): 5 nM
